Results published in the supplement of paper PMC10307832.

What was measured:
Assay in all cases: relative viability (nuclei count vs DMSO), 5 days (fraction); higher = more cells survive
[1] = test system: CAL-12T
Procedure, shortened: (§1)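 Medians of duplicate plates are given as relative viability. That measure is the nuclei count in treated wells divided by the count in vehicle wells. Counts were taken on 4× images of lung cancer cell lines in 1536-well plates, 5 days after pin-tool dosing the day after seeding with one drug alone or a fixed anchor-drug dose plus five library-drug doses (not always all listed) in √10 steps.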

[2] = test system: COR-L 105
Procedure, shortened: as §1

[3] = test system: NCI-H2126
Procedure, shortened: as §1

[4] = test system: HOP-62
Procedure, shortened: as §1

[5] = test system: NCI-H322M
Procedure, shortened: as §1

[6] = test system: LXF-289
Procedure, shortened: as §1

[7] = test system: HCC-15
Procedure, shortened: as §1

[8] = test system: NCI-H1666
Procedure, shortened: as §1

[9] = test system: HCC-78
Procedure, shortened: as §1

[10] = test system: ChaGo-K-1
Procedure, shortened: as §1

[11] = test system: NCI-H1975
Procedure, shortened: as §1

[12] = test system: NCI-H441
Procedure, shortened: as §1

[13] = test system: NCI-H1755
Procedure, shortened: as §1

[14] = test system: NCI-H2085
Procedure, shortened: as §1

[15] = test system: NCI-H2023
Procedure, shortened: as §1

[16] = test system: NCI-H358
Procedure, shortened: as §1

[17] = test system: ABC-1
Procedure, shortened: as §1

[18] = test system: UMC-11
Procedure, shortened: as §1

[19] = test system: EMC-BAC-2
Procedure, shortened: as §1

[20] = test system: NCI-H3122
Procedure, shortened: as §1

[21] = test system: EPLC-272H
Procedure, shortened: as §1

[22] = test system: NCI-H1915
Procedure, shortened: as §1

Question: With `COc1nc(C)cnc1NS(=O)(=O)c1cccnc1-c1ccc(-c2nnco2)cc1` [Zibotentan] + O=C(c1cc(Cc2n[nH]c(=O)c3ccccc23)ccc1F)N1CCN(C(=O)C2CC2)CC1 [Olaparib] (partner 8 µM) as the compound, how does the relative viability ([1]; first compound 0.08 µM) read?
Answer: Its relative viability is 0.742.

Question: What about the relative viability ([1]; first compound 0.253 µM) of the same compound?
Answer: The relative viability was 0.67.

Question: What about the relative viability ([1]; first compound 0.8 µM) of the same compound?
Answer: The relative viability was 0.768.

Question: And the relative viability ([1]; first compound 2.53 µM)?
Answer: Its relative viability is 0.664.

Question: What about the relative viability ([2]; first compound 0.08 µM) of the same compound?
Answer: The relative viability was 0.68.

Question: What about the relative viability ([2]; first compound 0.253 µM) of the same compound?
Answer: Its relative viability is 0.605.

Question: And the relative viability ([2]; first compound 0.8 µM)?
Answer: The relative viability was 0.721.

Question: What about the relative viability ([2]; first compound 2.53 µM) of the same compound?
Answer: Its relative viability is 0.784.

Question: What about the relative viability ([3]; first compound 0.08 µM) of the same compound?
Answer: Its relative viability is 0.945.

Question: What about the relative viability ([3]; first compound 0.253 µM) of the same compound?
Answer: Its relative viability is 0.942.

Question: What about the relative viability ([3]; first compound 0.8 µM) of the same compound?
Answer: Its relative viability is 0.89.

Question: What about the relative viability ([3]; first compound 2.53 µM) of the same compound?
Answer: The relative viability was 0.951.

Question: And the relative viability ([4]; first compound 0.08 µM)?
Answer: Its relative viability is 0.429.

Question: What about the relative viability ([4]; first compound 0.253 µM) of the same compound?
Answer: Its relative viability is 0.34.

Question: What about the relative viability ([4]; first compound 0.8 µM) of the same compound?
Answer: Its relative viability is 0.503.

Question: What about the relative viability ([4]; first compound 2.53 µM) of the same compound?
Answer: Its relative viability is 0.502.

Question: What about the relative viability ([5]; first compound 0.08 µM) of the same compound?
Answer: Its relative viability is 0.758.

Question: What about the relative viability ([5]; first compound 0.253 µM) of the same compound?
Answer: Its relative viability is 0.659.

Question: What about the relative viability ([5]; first compound 0.8 µM) of the same compound?
Answer: Its relative viability is 0.949.

Question: What about the relative viability ([5]; first compound 2.53 µM) of the same compound?
Answer: Its relative viability is 0.727.

Question: What about the relative viability ([6]; first compound 0.08 µM) of the same compound?
Answer: The relative viability was 1.01.

Question: What about the relative viability ([6]; first compound 0.253 µM) of the same compound?
Answer: The relative viability was 1.

Question: What about the relative viability ([6]; first compound 0.8 µM) of the same compound?
Answer: Its relative viability is 1.14.

Question: And the relative viability ([6]; first compound 2.53 µM)?
Answer: The relative viability was 1.09.

Question: What about the relative viability ([7]; first compound 0.08 µM) of the same compound?
Answer: The relative viability was 0.717.

Question: And the relative viability ([7]; first compound 0.253 µM)?
Answer: Its relative viability is 0.703.

Question: What about the relative viability ([7]; first compound 0.8 µM) of the same compound?
Answer: Its relative viability is 0.774.

Question: What about the relative viability ([7]; first compound 2.53 µM) of the same compound?
Answer: The relative viability was 0.649.

Question: What about the relative viability ([8]; first compound 0.08 µM) of the same compound?
Answer: Its relative viability is 0.753.

Question: And the relative viability ([8]; first compound 0.253 µM)?
Answer: The relative viability was 0.726.

Question: And the relative viability ([8]; first compound 0.8 µM)?
Answer: The relative viability was 0.765.

Question: What about the relative viability ([8]; first compound 2.53 µM) of the same compound?
Answer: The relative viability was 0.728.

Question: What about the relative viability ([9]; first compound 0.08 µM) of the same compound?
Answer: The relative viability was 0.949.

Question: And the relative viability ([9]; first compound 0.253 µM)?
Answer: Its relative viability is 0.748.

Question: What about the relative viability ([9]; first compound 0.8 µM) of the same compound?
Answer: The relative viability was 0.719.

Question: What about the relative viability ([9]; first compound 2.53 µM) of the same compound?
Answer: Its relative viability is 0.736.

Question: And the relative viability ([10]; first compound 0.08 µM)?
Answer: The relative viability was 0.393.

Question: What about the relative viability ([10]; first compound 0.253 µM) of the same compound?
Answer: Its relative viability is 0.396.

Question: What about the relative viability ([10]; first compound 0.8 µM) of the same compound?
Answer: Its relative viability is 0.322.

Question: And the relative viability ([10]; first compound 2.53 µM)?
Answer: Its relative viability is 0.393.

Question: And the relative viability ([11]; first compound 0.08 µM)?
Answer: Its relative viability is 0.855.

Question: And the relative viability ([11]; first compound 0.253 µM)?
Answer: The relative viability was 0.742.

Question: And the relative viability ([11]; first compound 0.8 µM)?
Answer: Its relative viability is 0.749.

Question: What about the relative viability ([11]; first compound 2.53 µM) of the same compound?
Answer: The relative viability was 0.765.

Question: And the relative viability ([12]; first compound 0.08 µM)?
Answer: Its relative viability is 0.549.

Question: And the relative viability ([12]; first compound 0.253 µM)?
Answer: Its relative viability is 0.517.

Question: What about the relative viability ([12]; first compound 0.8 µM) of the same compound?
Answer: The relative viability was 0.638.

Question: And the relative viability ([12]; first compound 2.53 µM)?
Answer: Its relative viability is 0.576.

Question: And the relative viability ([13]; first compound 0.08 µM)?
Answer: Its relative viability is 0.893.

Question: And the relative viability ([13]; first compound 0.253 µM)?
Answer: Its relative viability is 0.846.

Question: And the relative viability ([13]; first compound 0.8 µM)?
Answer: The relative viability was 0.908.

Question: What about the relative viability ([13]; first compound 2.53 µM) of the same compound?
Answer: Its relative viability is 0.907.

Question: What about the relative viability ([14]; first compound 0.08 µM) of the same compound?
Answer: The relative viability was 0.742.

Question: And the relative viability ([14]; first compound 0.253 µM)?
Answer: Its relative viability is 0.734.

Question: What about the relative viability ([14]; first compound 0.8 µM) of the same compound?
Answer: Its relative viability is 0.856.

Question: What about the relative viability ([14]; first compound 2.53 µM) of the same compound?
Answer: Its relative viability is 0.801.

Question: What about the relative viability ([15]; first compound 0.08 µM) of the same compound?
Answer: The relative viability was 0.438.

Question: And the relative viability ([15]; first compound 0.253 µM)?
Answer: Its relative viability is 0.415.

Question: And the relative viability ([15]; first compound 0.8 µM)?
Answer: The relative viability was 0.516.

Question: And the relative viability ([15]; first compound 2.53 µM)?
Answer: The relative viability was 0.469.

Question: And the relative viability ([16]; first compound 0.08 µM)?
Answer: The relative viability was 0.735.

Question: And the relative viability ([16]; first compound 0.253 µM)?
Answer: The relative viability was 0.323.

Question: And the relative viability ([16]; first compound 2.53 µM)?
Answer: The relative viability was 0.689.

Question: What about the relative viability ([17]; first compound 0.08 µM) of the same compound?
Answer: Its relative viability is 1.

Question: What about the relative viability ([17]; first compound 0.253 µM) of the same compound?
Answer: The relative viability was 0.527.

Question: What about the relative viability ([17]; first compound 0.8 µM) of the same compound?
Answer: The relative viability was 0.8.

Question: What about the relative viability ([17]; first compound 2.53 µM) of the same compound?
Answer: The relative viability was 0.819.

Question: And the relative viability ([18]; first compound 0.08 µM)?
Answer: Its relative viability is 0.321.

Question: What about the relative viability ([18]; first compound 0.253 µM) of the same compound?
Answer: Its relative viability is 0.409.

Question: And the relative viability ([18]; first compound 0.8 µM)?
Answer: Its relative viability is 0.44.

Question: What about the relative viability ([18]; first compound 2.53 µM) of the same compound?
Answer: Its relative viability is 0.438.

Question: What about the relative viability ([19]; first compound 0.08 µM) of the same compound?
Answer: Its relative viability is 0.519.

Question: And the relative viability ([19]; first compound 0.8 µM)?
Answer: Its relative viability is 0.562.

Question: And the relative viability ([19]; first compound 2.53 µM)?
Answer: Its relative viability is 0.461.

Question: And the relative viability ([20]; first compound 0.08 µM)?
Answer: The relative viability was 0.625.

Question: What about the relative viability ([20]; first compound 0.253 µM) of the same compound?
Answer: The relative viability was 0.549.

Question: And the relative viability ([20]; first compound 0.8 µM)?
Answer: The relative viability was 0.581.

Question: And the relative viability ([20]; first compound 2.53 µM)?
Answer: The relative viability was 0.608.

Question: And the relative viability ([21]; first compound 0.253 µM)?
Answer: The relative viability was 0.732.

Question: What about the relative viability ([21]; first compound 0.8 µM) of the same compound?
Answer: The relative viability was 0.991.

Question: What about the relative viability ([21]; first compound 2.53 µM) of the same compound?
Answer: Its relative viability is 0.754.

Question: What about the relative viability ([22]; first compound 0.08 µM) of the same compound?
Answer: The relative viability was 0.31.

Question: What about the relative viability ([22]; first compound 0.253 µM) of the same compound?
Answer: The relative viability was 0.277.

Question: What about the relative viability ([22]; first compound 0.8 µM) of the same compound?
Answer: The relative viability was 0.254.

Question: And the relative viability ([22]; first compound 2.53 µM)?
Answer: The relative viability was 0.24.
